Reference: patent US20210253560A1, “PLANT GROWTH REGULATING COMPOUNDS” (SYNGENTA PARTICIPATIONS AG, priority 2018, published 2021)
Where two headings read alike, the source gives them in different places.

System: corn leaf
Test: Dark induced senescence of corn leaf (leaf discs, image analysis)
Format: in vivo, corn (variety Multitop)
Details: 100 μM-0.0001 μM, 23° C., up to 8 days, 12 replicates, read-out: IC50 for dark induced senescence of corn leaf (concentration at which 50% senescence was achieved)
Experimental: It is known that strigolactones regulate (accelerate) leaf senescence, potentially through D14 receptor signaling. Compounds of the present invention (IA) were compared to structurally-related compounds (P) in a corn leaf dark induced senescence assay. Corn plants of variety Multitop were grown in a greenhouse with relative 75% humidity and at 23-25° C. for 6 weeks. 1.4 cm diameter leaf discs were placed into 24-well plates containing a test compounds in a concentration gradient (100 μM-0.0001 μM) at a final concentration of 0.5% DMSO. Each concentration was tested in 12 replicates. Plates were sealed with seal foil. The foil was pierced to provide gas exchange in each well. The plates were placed into the completely dark climatic chamber. Plates were incubated in the chamber with 75% humidity and at 23° C. for 8 days. On days 0, 5, 6, 7 and 8 photographs were taken of each plates, and image analysis conducted with a macro developed using the ImageJ software. The image analysis was used to determine the concentration at which 50% senescence was achieved (IC50), see Table 3. The lower the value, the higher senescence induction potency.

Structure (SMILES)	IC50 [nM]	IC50 (Zea mays, foliar, 192 h) [nM]
CC1=CC(OC=C2C(=O)N(CC#N)C3c4ccccc4CC23)OC1=O (stereo not drawn) [Compound P1]	110	–
CC1=CC(OC=C2C(=O)N(CC#N)C3c4ccccc4CC23)OC1=O (stereo not drawn) [Compound P2]	9700	–
CC1=CC(OC=C2C(=O)N(CC#N)C3c4ccccc4CC23)OC1=O (stereo not drawn) [Compound P3]	7200	–
CC1=CC(OC=C2C(=O)N(CC#N)C3c4ccccc4CC23)OC1=O (stereo not drawn) [Compound P4]	2470	–
CC1=CC(OC=C2C(=O)N(CC#N)C3c4ccccc4CC23)OC1=O (stereo not drawn) [Compound P6-Z]	74	–
CC(=O)N1C(=O)/C(=C/OC2OC(=O)C(C)=C2C)C2Cc3ccccc3C21 (stereo not drawn) [IA-1, (3E)-1-acetyl-3-[(3,4-dimethyl-5-oxo-2H-furan-2-yl)oxymethylene]-4,8b-dihydro-3aH-indeno[1,2-b]pyrrol-2-one]	–	30
CC1=C(C)C(O/C=C2/C(=O)N(c3ccccc3)C3c4ccccc4CC23)OC1=O (stereo not drawn) [IA-8, (3E)-3-[(3,4-dimethyl-5-oxo-2H-furan-2-yl)oxymethylene]-1-phenyl-4,8b-dihydro-3aH-indeno[1,2-b]pyrrol-2-one]	–	170
CC1=C(C)C(O/C=C2/C(=O)N(CC#N)C3c4ccccc4CC23)OC1=O (stereo not drawn) [IA-10-E]	–	155
CC1=C(C)C(O/C=C2\C(=O)N(CC#N)C3c4ccccc4CC23)OC1=O (stereo not drawn) [IA-10-Z, 2-[(3Z)-3-[(3,4-dimethyl-5-oxo-2H-furan-2-yl)oxymethylene]-2-oxo-4,8b-dihydro-3aH-indeno[1,2-b]pyrrol-1-yl]acetonitrile]	–	70
